Entries after “also recorded” stand apart in the source; their conditions may differ. Like-named read-outs stand apart in the source and are kept apart here.
Tests used:
[1] = Source text: Written informed consent was obtained from all the participants included in the study. The patient enrolment period for the screening study started on February 1, 2009 and ended on July 31, 2012.
(§1) We obtained data on compliance and the grade of hot flush as defined by the Common Terminology Criteria for Adverse Events v3.0.
The p value was not calculated if there were no events.

[2] = TOR versus TAM, seven randomized-controlled trials; cited from earlier work
[3] = weighting of plasma concentration; cited from earlier work
[4] = Total activity: sum of plasma concentrations of each active metabolite adjusted by in vitro activity; type: in vivo, breast cancer patients
Procedure: Blood samples for PK analysis were obtained from patients who had good compliance with taking medications 2–4 h after taking anti-estrogens. […] The interday variability and intraday variability for all compounds are within 15%.

[5] = Hot flush grade (CTCAE v3.0) in the screening study; type: in vivo, breast cancer patients; conditions: screening study
Source text: as §1

SMILES: CN(C)CCOc1ccc(/C(=C(/CCCl)c2ccccc2)c2ccccc2)cc1 [TOR, toremifene]
- Low WBC ≧ G2, % of patients ([1]; TOR 120 mg (1)): 11.1%
- Low WBC ≧ G2, patients ([1]; TOR 120 mg (1)): 1
- T. Bil elevation All grade, % of patients ([1]; TOR 120 mg (1)): 0 (0) %
- T. Bil elevation All grade, patients ([1]; TOR 120 mg (1)): 0 (0)
- T. Bil elevation ≧ G2, % of patients ([1]; TOR 120 mg (1)): 0 (0) %
- T. Bil elevation ≧ G2, patients ([1]; TOR 120 mg (1)): 0 (0)
- TG elevation All grade, % of patients ([1]; TOR 120 mg (1)): 0 (0) %
- TG elevation All grade, patients ([1]; TOR 120 mg (1)): 0 (0)
- TG elevation ≧ G2, % of patients ([1]; TOR 120 mg (1)): 0 (0) %
- TG elevation ≧ G2, patients ([1]; TOR 120 mg (1)): 0 (0)
- Weight, max ([1]; TOR 120 mg (1)): 73.5 kg
- Weight, mean ([1]; TOR 120 mg (1)): 53.4 kg
- Weight, median ([1]; TOR 120 mg (1)): 51.0 kg
- Weight, min ([1]; TOR 120 mg (1)): 45.0 kg
- Cre elevation All grade, % of patients ([1]; TOR 120 mg (2)): 16.7%
- Cre elevation All grade, patients ([1]; TOR 120 mg (2)): 2
- Cre elevation ≧ G2, % of patients ([1]; TOR 120 mg (2)): 0 (0) %
- Cre elevation ≧ G2, patients ([1]; TOR 120 mg (2)): 0 (0)
- GOT elevation All grade, % of patients ([1]; TOR 120 mg (2)): 8.3%
- GOT elevation All grade, patients ([1]; TOR 120 mg (2)): 1
- GOT elevation ≧ G2, % of patients ([1]; TOR 120 mg (2)): 0 (0) %
- GOT elevation ≧ G2, patients ([1]; TOR 120 mg (2)): 0 (0)
- GPT elevation All grade, % of patients ([1]; TOR 120 mg (2)): 8.3%
- GPT elevation All grade, patients ([1]; TOR 120 mg (2)): 1
- GPT elevation ≧ G2, % of patients ([1]; TOR 120 mg (2)): 0 (0) %
- GPT elevation ≧ G2, patients ([1]; TOR 120 mg (2)): 0 (0)
- Hot flush G0, % of patients ([1]; TOR 120 mg (2)): 75.0%
- Hot flush G0, patients ([1]; TOR 120 mg (2)): 9
- Hot flush G1, % of patients ([1]; TOR 120 mg (2)): 8.3%
- Hot flush G1, patients ([1]; TOR 120 mg (2)): 1
- Hot flush G2, % of patients ([1]; TOR 120 mg (2)): 16.7%
- Hot flush G2, patients ([1]; TOR 120 mg (2)): 2
- Hyperglycemia All grade, % of patients ([1]; TOR 120 mg (2)): 7.1%
- Hyperglycemia All grade, patients ([1]; TOR 120 mg (2)): 1
- Hyperglycemia ≧ G2, % of patients ([1]; TOR 120 mg (2)): 7.1%
- Hyperglycemia ≧ G2, patients ([1]; TOR 120 mg (2)): 1
- LDH elevation All grade, % of patients ([1]; TOR 120 mg (2)): 0 (0) %
- LDH elevation All grade, patients ([1]; TOR 120 mg (2)): 0 (0)
- LDH elevation ≧ G2, % of patients ([1]; TOR 120 mg (2)): 0 (0) %
- LDH elevation ≧ G2, patients ([1]; TOR 120 mg (2)): 0 (0)
- LDL elevation All grade, % of patients ([1]; TOR 120 mg (2)): 10.0%
- LDL elevation All grade, patients ([1]; TOR 120 mg (2)): 1
- LDL elevation ≧ G2, % of patients ([1]; TOR 120 mg (2)): 0 (0) %
- LDL elevation ≧ G2, patients ([1]; TOR 120 mg (2)): 0 (0)
- Low PLT All grade, % of patients ([1]; TOR 120 mg (2)): 0 (0) %
- Low PLT All grade, patients ([1]; TOR 120 mg (2)): 0 (0)
- Low PLT ≧ G2, % of patients ([1]; TOR 120 mg (2)): 0 (0) %
- Low PLT ≧ G2, patients ([1]; TOR 120 mg (2)): 0 (0)
- Low WBC All grade, % of patients ([1]; TOR 120 mg (2)): 8.3%
- Low WBC All grade, patients ([1]; TOR 120 mg (2)): 1
- Low WBC ≧ G2, % of patients ([1]; TOR 120 mg (2)): 8.3%
- Low WBC ≧ G2, patients ([1]; TOR 120 mg (2)): 1
- T. Bil elevation All grade, % of patients ([1]; TOR 120 mg (2)): 0 (0) %
- T. Bil elevation All grade, patients ([1]; TOR 120 mg (2)): 0 (0)
- T. Bil elevation ≧ G2, % of patients ([1]; TOR 120 mg (2)): 0 (0) %
- T. Bil elevation ≧ G2, patients ([1]; TOR 120 mg (2)): 0 (0)
- TG elevation All grade, % of patients ([1]; TOR 120 mg (2)): 0 (0) %
- TG elevation All grade, patients ([1]; TOR 120 mg (2)): 0 (0)
- TG elevation ≧ G2, % of patients ([1]; TOR 120 mg (2)): 0 (0) %
- TG elevation ≧ G2, patients ([1]; TOR 120 mg (2)): 0 (0)
- Weight, max ([1]; TOR 120 mg (2)): 73.0 kg
- Weight, mean ([1]; TOR 120 mg (2)): 53.6 kg
- Weight, median ([1]; TOR 120 mg (2)): 51.1 kg
- Weight, min ([1]; TOR 120 mg (2)): 46.0 kg
- Body weight during dose escalation ([1]; TOR 40 to 120 mg): remained stable
- Hot flushes and GOT/GPT elevation with an increase in the dose ([1]; TOR 40 to 120 mg): only a few patients developed hot flushes and GOT/GPT elevation
- Efficacy in patients with advanced breast cancer [2]: equally effective
- In vitro activity factor in the total activity of TOR (TOR = 1.0) [3]: 1.0
- Total activity on continuing the same dose ([4]; TOR 120 mg for up to 6 months, trend for decrease after 24 weeks): remained constant
- Change of total activity after increasing the dose ([4]; TOR from 40 to 120 mg, p < 0.01): increased significantly; also recorded: increased by at least twofold
- Hot flush grade 0, % of patients ([5]; TOR 40 mg): 57.4%
- Hot flush grade 0, patients ([5]; TOR 40 mg): 35
- Hot flush grade 1, % of patients ([5]; TOR 40 mg): 32.8%
- Hot flush grade 1, patients ([5]; TOR 40 mg): 20
- Hot flush grade 2, % of patients ([5]; TOR 40 mg): 9.8%
- Hot flush grade 2, patients ([5]; TOR 40 mg): 6
- Hot flush grade 3, % of patients ([5]; TOR 40 mg): 0.0%
- Hot flush grade 3, patients ([5]; TOR 40 mg): 0
- Hot flush grade 0, % of patients ([5]; TOR 120 mg): 88.9%
- Hot flush grade 0, patients ([5]; TOR 120 mg): 24
- Hot flush grade 1, % of patients ([5]; TOR 120 mg): 11.1%
- Hot flush grade 1, patients ([5]; TOR 120 mg): 3
- Hot flush grade 2, % of patients ([5]; TOR 120 mg): 0.0%
- Hot flush grade 2, patients ([5]; TOR 120 mg): 0
- Hot flush grade 3, % of patients ([5]; TOR 120 mg): 0.0%
- Hot flush grade 3, patients ([5]; TOR 120 mg): 0
- Grade and frequency of hot flushes compared with TAM 20 mg or TOR 40 mg ([5]; patients taking TOR 120 mg): lower grade and frequency of hot flushes

— paper PMC6694038, “Pharmacogenomic–pharmacokinetic study of selective estrogen-receptor modulators with intra-patient dose escalation in breast cancer” (Breast Cancer (Tokyo, Japan), 2019)
